“And” between values parts separate entries of the source, which are not always exact repeats. Identical values can stand only once. “Also recorded” adds a separate entry of the source. Like-named read-outs stand apart in the source and are kept apart here.
Tests used:
Format in all cases: cell-based
[1] = Cytotoxicity of alkyl lipids, neutral red dye uptake (Table 1); conditions: human, hep-g2 cells
Procedure, shortened: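 HepG2 cells carrying tandem HBV genomes, with a G418-resistance plasmid, were given four serial compound concentrations in triplicate in RPMI-1640 for nine days at 37° C, with periodic medium replacement. Viability was measured by 0.01% neutral red uptake (A510) and expressed as percent of untreated control wells ±SD.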

[2] = system: Hepatitis B virus; assay: Anti-hepatitis B virus activity in HEP-G2 cells persistently infected with HBV (Table 2); conditions: for activity at 10 µM: Hepatitis B virus, HepG2, 216 h, 9 days treatment
Procedure, shortened: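 HBV-persistently infected HepG2 cells were dosed daily with 10 μM compound in 20% FBS medium for 9 days. Medium HBsAg and HBeAg were measured by EIA and virion DNA by slot-blot hybridisation, each relative to untreated controls. EC90 (90% drop in HBV DNA replication intermediates) came from linear regression.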

[3] = system: Hepatitis B virus; assay: CP-51 against HBV-induced antigen syntheses in HEP-G2 cells persistently infected with HBV (Table 3); conditions: for activity at 10 µM / inhibition at 10 µM: Hepatitis B virus; for activity at 10 µM: HepG2, 216 h, 9 days treatment; for inhibition at 10 µM: HepG2
Experimental: (§1) HEP-G2 cells persistently infected with HBV were treated daily with fresh D-MEM containing 20% FBS and 10 μM compound. After 9 days incubation and treatment, the overlay medium was harvested to assay the quantity of Hepatitis B virus s antigen (HBsAg) and HBeAg by EIA (Abbott Laboratories). The overlay medium was diluted to levels of antigen in the linear range of the assay. Standard curves using dilutions of positive HBsAg and HBeAg controls were included in each assay. Virion DNA was assayed using the method set forth in Korba and Gerin, Antiviral Res., 19, 5,5-70 (1992), incorporated by reference herein. HBV DNA was extracted from the overlay medium containing virus particles and analyzed by a slot-blot hybridization technique using ^32 P-labelled 3.2 Kb Eco R1 HBV DNA fragment by comparisons to HBV standards present on nitrocellulose filters using an AMBIS beta scanner. EC90 values (90% effective concentration, i.e., drug concentration which induces a 90% decrease in the levels of HBV DNA replication intermediates in treated versus control cells) were calculated by linear regression analysis. The relative levels of HBsAg, HBeAg and virion DNA were calulated as a percentage of the average levels obtained from the untreated controls.
In contrast, CP-51 inhibited HBeAg and HBcAg syntheses by 76 and 68%, respectively.

[4] = system: Hepatitis B virus; assay: Effects of CP-51 on HBV-induced DNA and RNA synthesis (Table 4); conditions: for mrna remaining at 10 µM / activity at 10 µM / inhibition at 10 µM: Hepatitis B virus; for mrna remaining at 10 µM / activity at 10 µM: 9 days treatment
Experimental: as §1
Experiments were performed to determine the effects of CP-51 on HBV induced DNA and RNA syntheses. HEP-G2 cells persistently infected with HBV were treated daily with fresh D-MEM containing 20% FBS and 10 μM compound. After 9 days incubation and treatment the cells and overlay medium were harvested separately to assay the quantity of nucleic acids. Details of the methodology of the assays are given in Section B above. Extracellular virion DNA in untreated cells ranged from 50 to 150 pg/ml in the overlay medium. Intracellular HBV DNA replication intermediates (RI) in untreated cells ranged from 50 to 100 pg/μg cell DNA. Hybridization analysis results in about 1 pg intracellular HBV DNA/μg cellular DNA to 2-3 genomic copies per cell and 1.0 pg of extracellular HBV DNA/ml overlay medium to […] viral particles/ml. HBV RNA was analyzed by Northern blot hybridization analysis using a ^32 P-labeled 3.2 Kb gel-purified cloned genomic probe. Quantitive analysis of intracellular HBV DNA anc 14BV RNA was performed using an AMBIS beta scanner.

[5] = system: Hepatitis B virus; assay: Effect of alkyl lipids on HBV replication in HBV persistently infected human HEP G2 cells (Table 6); conditions: for Intracellular HBV DNA, Mono (episomal 3.2-3.8 Kb HBV genomes) / Intracellular HBV DNA, RI (replication intermediates): nine days
Procedure, shortened: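 Persistently HBV-infected HepG2 cells exposed to compound for nine days at 37 °C, intracellular HBV DNA analysed 24 h after day nine. Episomal 3.2-3.8 Kb genomes and replication intermediates normalized to integrated HBV DNA; virion DNA detection cut-off 0.1 pg DNA/ml culture medium.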

[6] = system: Hepatitis B virus; assay: Effect on synthesis of antigen markers in persistently infected human HEP G2 cell cultures (Table 7)
Procedure, shortened: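 Persistently infected HepG2 cells treated with compound for nine days at 37° C. Culture medium then harvested: HBsAg and HBeAg quantified by EIA, virion DNA by hybridisation-based DNA measurement. Sensitivity cut-off 0.1 pg DNA/ml medium.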

[7] = system: Hepatitis B virus; assay: Effect of alkyl lipid on HBV induction of antigen markers, DNA and RNA in persistently infected human HEP-G2 cell cultures (Table 8); conditions: for activity at 10 µM: Hepatitis B virus, HepG2, 216 h, nine days, untreated controls 100
Experimental: Further analyses were carried out with compound CP-51. Again, the cells were treated for nine days at 37° C. The overlay medium was harvested to measure levels of HBsAg, HBeAg, HBcAg, virion DNA, RI DNA and RNA levels. HBsAg and HBeAg were assayed by EIA (Abbott Laboratories). HBcAg was assayed by a solid phase EIA. HBV RNA was analyzed by Northern blot hybridization using a ^32 P-labelled 3.2 Kb genomic probe. Intracellular HBV RNA and RI HBV DNA was quantitated using a AMBIS beta scanner.

## CCCCCCCCCCCCCCCCCC(=O)NCC(COP(=O)([O-])OCC[N+](C)(C)C)OCC (racemic) [CP-51, rac-3-octadecanamido-2-ethyoxy-1-propylphosphocholine]
[1]
  cytotoxicity at 216 h, 30 µM: 4%
  cytotoxicity at 216 h, 100 µM: 29%
  viability at 216 h, 3 µM: 101 ± 1%
  viability at 216 h, 10 µM: 100 ± 4%
  viability at 216 h, 30 µM: 96 ± 2%
  viability at 216 h, 100 µM: 71 ± 1%
[2]; 10 μM, in words
  activity against HBV-induced virion DNA and HBeAg syntheses: potent inhibitory activity
[2]; 10 μM, read-out: Relative Level of HBeAg
  activity at 10 µM: 28%
[2]; 10 μM, read-out: Relative Level of HBsAg
  activity at 10 µM: 99%
[2]; 10 μM, read-out: Relative Level of Virion DNA
  activity at 10 µM: 2%
[2]; in words
  anti-HBV activity: most potent anti-HBV compound; also recorded: most potent anti-HBV activity
[3]; 10 μM, in words
  inhibitory activity against HBsAg synthesis: no inhibitory activity
[3]; 10 μM, read-out: Relative Levels of HBcAg
  activity at 10 µM: 32%
[3]; 10 μM, read-out: Relative Levels of HBeAg
  activity at 10 µM: 24%
[3]; 10 μM, read-out: Relative Levels of HBsAg
  activity at 10 µM: 88%
[3]; 10 μM, read-out: inhibition of HBcAg synthesis
  inhibition at 10 µM: 68%
[3]; 10 μM, read-out: inhibition of HBeAg synthesis
  inhibition at 10 µM: 76%
[3]; in words
  inhibitory activity against HBeAg and HBcAg (core and e antigen) syntheses: selective inhibitory activity; also recorded: inhibit the production of the HBV antigens core antigen and e antigen
[4]; 10 μM, in words
  effect on HBV-induced RNA syntheses: no significant effects
[4]; HepG2, 216 h, 10 μM, read-out: Relative Level of 2.1 Kb RNA
  mrna remaining at 10 µM: 112%
[4]; HepG2, 216 h, 10 μM, read-out: Relative Level of 3.2 Kb DNA
  activity at 10 µM: 42%
[4]; HepG2, 216 h, 10 μM, read-out: Relative Level of 3.6 Kb RNA
  mrna remaining at 10 µM: 84%
[4]; HepG2, 216 h, 10 μM, read-out: Relative Level of Total RNA
  mrna remaining at 10 µM: 112%
[4]; HepG2, 216 h, 10 μM, read-out: Relative Level of Virion DNA
  activity at 10 µM: 2%
[4]; HepG2, 216 h, 10 μM, replication intermediates, read-out: Relative Level of HBV RI
  activity at 10 µM: 12%
[4]; HepG2, 216 h, 10 μM, read-out: inhibition of 3.2 Kb DNA synthesis
  inhibition at 10 µM: 58%
[4]; 10 μM, read-out: inhibition of replication intermediates (RI) DNA synthesis
  inhibition at 10 µM: 88%
[4]; 10 μM, read-out: inhibition of virion DNA synthesis
  inhibition at 10 µM: 98%
[4]; in words
  selectivity for HBV-induced antigens and nucleic acids: selective for inhibiting HBV-induced HBcAg, HBeAg, virion DNA and HBV RI syntheses but not HBsAg or RNA syntheses
[5]; 0.1 μM
  Intracellular HBV DNA, Mono (episomal 3.2-3.8 Kb HBV genomes): 2.7 pg/μg Cell DNA and 2.4 pg/μg Cell DNA and 2.3 pg/μg Cell DNA and 2.5 pg/μg Cell DNA and 2.9 pg/μg Cell DNA and 2.2 pg/μg Cell DNA and 2.6 pg/μg Cell DNA and 2.1 pg/μg Cell DNA
  Intracellular HBV DNA, RI (replication intermediates): 54 pg/μg Cell DNA and 62 pg/μg Cell DNA and 51 pg/μg Cell DNA
[5]; 1 μM, Day 9
  HBV Virion DNA: 9 pg/ml Culture Medium and 8 pg/ml Culture Medium and 12 pg/ml Culture Medium and 10 pg/ml Culture Medium and 13 pg/ml Culture Medium and 11 pg/ml Culture Medium and 14 pg/ml Culture Medium and 16 pg/ml Culture Medium
[5]; 1 μM
  Intracellular HBV DNA, Mono (episomal 3.2-3.8 Kb HBV genomes): 2.2 pg/μg Cell DNA and 2.3 pg/μg Cell DNA and 2.4 pg/μg Cell DNA and 2.6 pg/μg Cell DNA and 2.0 pg/μg Cell DNA and 2.1 pg/μg Cell DNA
  Intracellular HBV DNA, RI (replication intermediates): 12 pg/μg Cell DNA and 16 pg/μg Cell DNA and 17 pg/μg Cell DNA and 14 pg/μg Cell DNA and 13 pg/μg Cell DNA and 23 pg/μg Cell DNA and 21 pg/μg Cell DNA and 18 pg/μg Cell DNA
[5]; 10 μM, Day 0
  HBV Virion DNA: 59 pg/ml Culture Medium and 58 pg/ml Culture Medium and 60 pg/ml Culture Medium and 78 pg/ml Culture Medium and 51 pg/ml Culture Medium and 56 pg/ml Culture Medium and 64 pg/ml Culture Medium
[5]; 10 μM, Day 3
  HBV Virion DNA: 55 pg/ml Culture Medium and 49 pg/ml Culture Medium and 44 pg/ml Culture Medium and 48 pg/ml Culture Medium and 33 pg/ml Culture Medium and 30 pg/ml Culture Medium and 36 pg/ml Culture Medium and 40 pg/ml Culture Medium
[5]; 10 μM, Day 6
  HBV Virion DNA: 20 pg/ml Culture Medium and 13 pg/ml Culture Medium and 10 pg/ml Culture Medium and 18 pg/ml Culture Medium and 12 pg/ml Culture Medium and 11 pg/ml Culture Medium and 14 pg/ml Culture Medium
[5]; 10 μM
  Intracellular HBV DNA, Mono (episomal 3.2-3.8 Kb HBV genomes): 1.7 pg/μg Cell DNA and 1.9 pg/μg Cell DNA and 1.8 pg/μg Cell DNA and 2.0 pg/μg Cell DNA and 1.3 pg/μg Cell DNA and 1.1 pg/μg Cell DNA and 1.2 pg/μg Cell DNA and 1.0 pg/μg Cell DNA
[5]; in words, versus ddC
  inhibition of HBV virion DNA and intracellular HBV RI DNA levels: markedly inhibited; also recorded: substantially inhibited
[6]; 10 μM, nine days, 12960 min
  Relative Level of HBeAg: 20 % of Untreated Control
  Relative Level of HBsAg: 78 % of Untreated Control and 114 % of Untreated Control
[6]; Hepatitis B virus, HepG2, 216 h, 10 μM, nine days, read-out: Relative Level of HBeAg
  activity at 10 µM: 23%
[6]; in words
  effect on HBsAg levels released into the culture medium: None of the compounds tested
  reduction in HBeAg and virion DNA levels: caused a reduction; also recorded: most active compounds in suppressing HBeAg and virion DNA levels
[7]; read-out: Relative Level of HBcAg
  activity at 10 µM: 32%
[7]; read-out: Relative Level of HBeAg
  activity at 10 µM: 24%
[7]; read-out: Relative Level of HBsAg
  activity at 10 µM: 88%
[7]; read-out: Relative Level of Intracellular HBV-DNA
  activity at 10 µM: 12%
[7]; read-out: Relative Level of RI DNA
  activity at 10 µM: 42%
[7]; read-out: Relative Level of Total RNA
  activity at 10 µM: 84%
[7]; read-out: Relative Level of Virion DNA
  activity at 10 µM: 2%
[7]; in words
  inhibition of Hepatitis B core antigen (HBcAg) levels: significantly inhibited
  level or size of HBV induced RNA transcripts of HBsAg: did not significantly alter

Source: patent US6030960A, “Method of treating hepatitis virus infections” (priority 1998, dated 2000)
